Here are results for one compound from ChEMBL document CHEMBL3046146, “Mutations in the mitochondrial cytochrome b of Tetranychus urticae Koch (Acari: Tetranychidae) confer cross-resistance between bifenazate and acequinocyl” (2009).

Holding throughout (type): functional
For test [1], the system named is Tetranychus urticae. Kind of test: Resistance ratio of LC50 for Tetranychus urticae HOL2 (two-spotted spider mite) harboring mitochondrial G126S Cytb mutation to LC50 for Tetranychus urticae GSS.
Test [2] relates to Tetranychus urticae. Kind of test: Toxicity against adult METI-resistant Tetranychus urticae MR-VP (two-spotted spider mite) in compound pretreated bean leaves assessed as mortality.
Test [3] concerns Tetranychus urticae. The test is described as follows: Toxicity against adult Tetranychus urticae HOL4 (two-spotted spider mite) harboring mitochondrial G126S Cytb mutation in compound pretreated bean leaves assessed as mortality.
Test [4] has as its system Tetranychus urticae. Kind of test: Toxicity against adult Tetranychus urticae MR-VL (two-spotted spider mite) in compound pretreated bean leaves assessed as mortality.
Test [5] relates to Tetranychus urticae. The test is described as follows: Resistance ratio of LC50 for Tetranychus urticae HOL1 (two-spotted spider mite) harboring mitochondrial G126S and I136T Cytb mutation to LC50 for Tetranychus urticae GSS.
For test [6], the system named is Tetranychus urticae. The test is described as follows: Toxicity against adult bifenazate-resistant Tetranychus urticae BR-VL (two-spotted spider mite) harboring mitochondrial G126S, S141F and D161G Cytb mutation in compound pretreated bean leaves assessed as mortality.
The test system of test [7] is Tetranychus urticae. Kind of test: Resistance ratio of LC50 for bifenazate-resistant Tetranychus urticae (two-spotted spider mite) BEL1 harboring mitochondrial P262T Cytb fixed mutation to LC50 for Tetranychus urticae GSS.
In test [8] the test system is Tetranychus urticae. The test is described as follows: Resistance ratio of LC50 for bifenazate-susceptible Tetranychus urticae LS-VL (two-spotted spider mite) to LC50 for Tetranychus urticae GSS.
Test [9] relates to Tetranychus urticae. Kind of test: Toxicity against adult bifenazate-susceptible Tetranychus urticae LS-VL (two-spotted spider mite) in compound pretreated bean leaves assessed as mortality.
Test [10] deals with Tetranychus urticae. The test is described as follows: Resistance ratio of LC50 for Tetranychus urticae (two-spotted spider mite) HOL4 harboring mitochondrial G126S Cytb mutation to LC50 for Tetranychus urticae GSS.
Test [11] relates to Tetranychus urticae. Kind of test: Toxicity against adult Tetranychus urticae HOL1 (two-spotted spider mite) harboring mitochondrial G126S and I136T Cytb mutation in compound pretreated bean leaves assessed as mortality.
The subject of test [12] is Tetranychus urticae. Kind of test: Resistance ratio of LC50 for bifenazate-resistant Tetranychus urticae BR-VL (two-spotted spider mite) harboring mitochondrial G126S, S141F and D161G Cytb mutation to LC50 for Tetranychus urticae GSS.
Test [13] deals with Tetranychus urticae. The test is described as follows: Toxicity against adult Tetranychus urticae HOL3 (two-spotted spider mite) harboring mitochondrial P262T Cytb heteroplasmic mutation in compound pretreated bean leaves assessed as mortality.
Test [14] concerns Tetranychus urticae. Kind of test: Resistance ratio of LC50 for Tetranychus urticae WI (two-spotted spider mite) to LC50 for Tetranychus urticae GSS.
The subject of test [15] is Tetranychus urticae. Kind of test: Toxicity against adult Tetranychus urticae GSS (two-spotted spider mite) in compound pretreated bean leaves assessed as mortality.
Test [16] has as its system Tetranychus urticae. The test is described as follows: Toxicity against adult bifenazate-resistant Tetranychus urticae BEL1 (two-spotted spider mite) harboring mitochondrial P262T Cytb fixed mutation in compound pretreated bean leaves assessed as mortality. Particulars: BEL-1.
Test [17] relates to Tetranychus urticae. Kind of test: Resistance ratio of LC50 for Tetranychus urticae HOL3 (two-spotted spider mite) harboring mitochondrial P262T Cytb heteroplasmic mutation to LC50 for Tetranychus urticae GSS.
Test [18] deals with Tetranychus urticae. The test is described as follows: Toxicity against adult Tetranychus urticae HOL2 (two-spotted spider mite) harboring mitochondrial G126S Cytb mutation in compound pretreated bean leaves assessed as mortality.
The subject of test [19] is Tetranychus urticae. The test is described as follows: Resistance ratio of LC50 for Tetranychus urticae MR-VL (two-spotted spider mite) to LC50 for Tetranychus urticae GSS.
The subject of test [20] is Tetranychus urticae. Kind of test: Toxicity against adult Tetranychus urticae WI (two-spotted spider mite) in compound pretreated bean leaves assessed as mortality.
For test [21], the system named is Tetranychus urticae. The test is described as follows: Resistance ratio of LC50 for METI-resistant Tetranychus urticae MR-VP (two-spotted spider mite) to LC50 for Tetranychus urticae GSS.

In general, LC50 refers to the concentration that kills 50% of the test population.

≈ marks a conversion by molar mass, not a printed value.

On to `COc1ccc(-c2ccccc2)cc1NNC(=O)OC(C)C` [BIFENAZATE], for which the RatioLC50 in [1] is reported as 12.1; in test [5], >2780; in test [7] it was >2780; in [8] it was 0.4; in test [10], >2780; in test [12] it was >2780. Also, the RatioLC50 in test [14] was 2.4; in test [17], >2780; in [19], 2.9; in [21] it was 2. Also, the LC50 is 7.3 µg/mL (≈ 24.3 µM) in [2]; > 10000 µg/mL in test [3]; 10.5 µg/mL (≈ 35 µM) in [4]; > 10000 µg/mL in [6]; 1.6 µg/mL (≈ 5.33 µM) in test [9]; > 10000 µg/mL in test [11]. The LC50 in [13] was > 10000 µg/mL; in [15], 3.6 µg/mL (≈ 12 µM); in test [16] it was > 10000 µg/mL; in test [18], 43.4 µg/mL (≈ 144 µM); in [20] it was 8.7 µg/mL (≈ 29 µM).
